Experimental data reported in US12295936B2, “Immunomodulating urea azalides” (Zoetis Services LLC, priority 2020, dated 2025).

The compounds below were run on BRD pathogens, M. haemolytica and P. multocida (assay: MIC screening panel of BRD pathogens (antibacterial / non-antibacterial)). Settings: Table J, Formula (1-A1b) compounds.
In the case of “1-((2S,3R,4S,6R)-2-(((2R,3S,4R,5R,8R,10R,11R,12S,13S,14R)-2-ethyl-3,4,10-trihydroxy-13-(((2R,4R,5S,6S)-5-hydroxy-4-methoxy-4,6-dimethyl-5-((4-(trifluoromethyl)piperazin-1-yl)methyl)tetrahydro-2H-pyran-2-yl)oxy)-3,5,8,10,12,14-hexamethyl-15-oxo-1-oxa-6-azacyclopentadecan-11-yl)oxy)-3-hydroxy-6-methyltetrahydro-2H-pyran-4-yl)-1,3-dimethyl-3-phenylurea [Example J-14]”, the “MIC ≤64 μg/mL for at least one of the bacterial strains (flag * at Ex #)” value is reported as “J-14* (*MIC ≤64 μg/mL for at least one of the bacterial strains)”.

Same assay, conditions: read-out: antibacterial / non-antibacterial (MIC for the BRD pathogens)
CC[C@H]1OC(=O)[C@H](C)[C@@H](O)[C@H](C)[C@@H](O[C@@H]2O[C@H](C)C[C@H](N(C)C(=O)Nc3ncccn3)[C@H]2O)[C@](C)(O)C[C@@H](C)CN[C@H](C)[C@@H](O)[C@]1(C)O [Example A-1, 1-((2S,3R,4S,6R)-2-(((2R,3S,4R,5R,8R,10R,11R,12S,13S,14R)-2-ethyl-3,4,10,13-tetrahydroxy-3,5,8,10,12,14-hexamethyl-15-oxo-1-oxa-6-azacyclopentadecan-11-yl)oxy)-3-hydroxy-6-methyltetrahydro-2H-pyran-4-yl)-1-methyl-3-(pyrimidin-2-yl)urea] was tested, and the MIC was greater than 64 µg/mL. For CC[C@H]1OC(=O)[C@H](C)[C@@H](O)[C@H](C)[C@@H](O[C@@H]2O[C@H](C)C[C@H](N(C)C(=O)Nc3cnccn3)[C@H]2O)[C@](C)(O)C[C@@H](C)CN[C@H](C)[C@@H](O)[C@]1(C)O [Example A-2, 1-((2S,3R,4S,6R)-2-(((2R,3S,4R,5R,8R,10R,11R,12S,13S,14R)-2-ethyl-3,4,10,13-tetrahydroxy-3,5,8,10,12,14-hexamethyl-15-oxo-1-oxa-6-azacyclopentadecan-11-yl)oxy)-3-hydroxy-6-methyltetrahydro-2H-pyran-4-yl)-1-methyl-3-(pyrazin-2-yl)urea], the MIC was greater than 64 µg/mL. Work on CC[C@H]1OC(=O)[C@H](C)[C@@H](O)[C@H](C)[C@@H](O[C@@H]2O[C@H](C)C[C@H](N(C)C(=O)Nc3ccccn3)[C@H]2O)[C@](C)(O)C[C@@H](C)CN[C@H](C)[C@@H](O)[C@]1(C)O [Example A-3, 1-((2S,3R,4S,6R)-2-(((2R,3S,4R,5R,8R,10R,11R,12S,13S,14R)-2-ethyl-3,4,10,13-tetrahydroxy-3,5,8,10,12,14-hexamethyl-15-oxo-1-oxa-6-azacyclopentadecan-11-yl)oxy)-3-hydroxy-6-methyltetrahydro-2H-pyran-4-yl)-1-methyl-3-(pyridin-2-yl)urea] yielded an MIC greater than 64 µg/mL. CC[C@H]1OC(=O)[C@H](C)[C@@H](O)[C@H](C)[C@@H](O[C@@H]2O[C@H](C)C[C@H](N(C)C(=O)Nc3cccnc3)[C@H]2O)[C@](C)(O)C[C@@H](C)CN[C@H](C)[C@@H](O)[C@]1(C)O [Example A-4, 1-((2S,3R,4S,6R)-2-(((2R,3S,4R,5R,8R,10R,11R,12S,13S,14R)-2-ethyl-3,4,10,13-tetrahydroxy-3,5,8,10,12,14-hexamethyl-15-oxo-1-oxa-6-azacyclopentadecan-11-yl)oxy)-3-hydroxy-6-methyltetrahydro-2H-pyran-4-yl)-1-methyl-3-(pyridin-3-yl)urea] was tested, and the MIC was greater than 64 µg/mL. CC[C@H]1OC(=O)[C@H](C)[C@@H](O)[C@H](C)[C@@H](O[C@@H]2O[C@H](C)C[C@H](N(C)C(=O)Nc3cnn(C)c3)[C@H]2O)[C@](C)(O)C[C@@H](C)CN[C@H](C)[C@@H](O)[C@]1(C)O [Example A-6, 1-((2S,3R,4S,6R)-2-(((2R,3S,4R,5R,8R,10R,11R,12S,13S,14R)-2-ethyl-3,4,10,13-tetrahydroxy-3,5,8,10,12,14-hexamethyl-15-oxo-1-oxa-6-azacyclopentadecan-11-yl)oxy)-3-hydroxy-6-methyltetrahydro-2H-pyran-4-yl)-1-methyl-3-(1-methyl-1H-pyrazol-4-yl)urea] showed an MIC greater than 64 µg/mL. CC[C@H]1OC(=O)[C@H](C)[C@@H](O)[C@H](C)[C@@H](O[C@@H]2O[C@H](C)C[C@H](N(C)C(=O)Nc3cc(C)n(C)n3)[C@H]2O)[C@](C)(O)C[C@@H](C)CN[C@H](C)[C@@H](O)[C@]1(C)O [Example A-7, 3-(1,5-dimethyl-1H-pyrazol-3-yl)-1-((2S,3R,4S,6R)-2-(((2R,3S,4R,5R,8R,10R,11R,12S,13S,14R)-2-ethyl-3,4,10,13-tetrahydroxy-3,5,8,10,12,14-hexamethyl-15-oxo-1-oxa-6-azacyclopentadecan-11-yl)oxy)-3-hydroxy-6-methyltetrahydro-2H-pyran-4-yl)-1-methylurea] was tested, and the MIC was greater than 64 µg/mL. Compound CC[C@H]1OC(=O)[C@H](C)[C@@H](O)[C@H](C)[C@@H](O[C@@H]2O[C@H](C)C[C@H](N(C)C(=O)Nc3ccc(C#N)cc3)[C@H]2O)[C@](C)(O)C[C@@H](C)CN[C@H](C)[C@@H](O)[C@]1(C)O [Example A-9, 3-(4-cyanophenyl)-1-((2S,3R,4S,6R)-2-(((2R,3S,4R,5R,8R,10R,11R,12S,13S,14R)-2-ethyl-3,4,10,13-tetrahydroxy-3,5,8,10,12,14-hexamethyl-15-oxo-1-oxa-6-azacyclopentadecan-11-yl)oxy)-3-hydroxy-6-methyltetrahydro-2H-pyran-4-yl)-1-methylurea] has an MIC greater than 64 µg/mL. CC[C@H]1OC(=O)[C@H](C)[C@@H](O)[C@H](C)[C@@H](O[C@@H]2O[C@H](C)C[C@H](N(C)C(=O)Nc3cccc(C(F)(F)F)c3)[C@H]2O)[C@](C)(O)C[C@@H](C)CN[C@H](C)[C@@H](O)[C@]1(C)O [Example A-10, 1-((2S,3R,4S,6R)-2-(((2R,3S,4R,5R,8R,10R,11R,12S,13S,14R)-2-ethyl-3,4,10,13-tetrahydroxy-3,5,8,10,12,14-hexamethyl-15-oxo-1-oxa-6-azacyclopentadecan-11-yl)oxy)-3-hydroxy-6-methyltetrahydro-2H-pyran-4-yl)-1-methyl-3-(3-(trifluoromethyl)phenyl)urea] showed an MIC greater than 64 µg/mL. Work on CC[C@H]1OC(=O)[C@H](C)[C@@H](O)[C@H](C)[C@@H](O[C@@H]2O[C@H](C)C[C@H](N(C)C(=O)Nc3cccc(C#N)c3)[C@H]2O)[C@](C)(O)C[C@@H](C)CN[C@H](C)[C@@H](O)[C@]1(C)O [Example A-11, 3-(3-cyanophenyl)-1-((2S,3R,4S,6R)-2-(((2R,3S,4R,5R,8R,10R,11R,12S,13S,14R)-2-ethyl-3,4,10,13-tetrahydroxy-3,5,8,10,12,14-hexamethyl-15-oxo-1-oxa-6-azacyclopentadecan-11-yl)oxy)-3-hydroxy-6-methyltetrahydro-2H-pyran-4-yl)-1-methylurea] yielded an MIC greater than 64 µg/mL. CC[C@H]1OC(=O)[C@H](C)[C@@H](O)[C@H](C)[C@@H](O[C@@H]2O[C@H](C)C[C@H](N(C)C(=O)Nc3ccccc3Cl)[C@H]2O)[C@](C)(O)C[C@@H](C)CN[C@H](C)[C@@H](O)[C@]1(C)O [Example A-12, 3-(2-chlorophenyl)-1-((2S,3R,4S,6R)-2-(((2R,3S,4R,5R,8R,10R,11R,12S,13S,14R)-2-ethyl-3,4,10,13-tetrahydroxy-3,5,8,10,12,14-hexamethyl-15-oxo-1-oxa-6-azacyclopentadecan-11-yl)oxy)-3-hydroxy-6-methyltetrahydro-2H-pyran-4-yl)-1-methylurea] was tested, and the MIC was greater than 64 µg/mL.
